Here are results for 13 compounds from PubChem BioAssay (NCI).

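Briefly, cells in 96-well plates were exposed to five compound concentrations for 48 h, and endpoints were estimated by linear interpolation. GI50 marks 50% less growth. Definition used: TGI = concentration required for complete inhibition of growth.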

Some test systems named below: LOX IMVI melanoma; UACC-257 melanoma; CAKI-1 renal; NCI/ADR-RES ovarian; NCI-H226 lung; HOP-92 NSCLC; SK-OV-3 ovarian; HCT-15 colon; MOLT-4 leukemia; HCC-2998 colon.
Holding throughout (assay): inhibition of tumour cell growth, NCI panel, 48 h

On to `COc1cc2c(cc1O)N=C[C@@H]1CCC(O)N1C2=O` (mixture of isomers), for which the TGI turned out to be 0.974 µM with LOX IMVI melanoma; 7.65 µM in the assay with UACC-257 melanoma; 11.7 µM with CAKI-1 renal; 3.42 µM in the assay with NCI/ADR-RES ovarian; 2.08 µM with NCI-H226 lung; 2.46 µM with HOP-92 NSCLC. Also, the TGI in the assay on SK-OV-3 ovarian was determined as 84 µM; in the assay on HCT-15 colon, 6.44 µM; with MOLT-4 leukemia it was 2.69 µM; with HCC-2998 colon, 2.81 µM.

For the compound `O=C1NC(=O)C2(CCc3ccc(N(CCCl)CCCl)cc32)N1` (configuration not stated), the TGI with LOX IMVI melanoma is 26.5 µM; with UACC-257 melanoma, 45.2 µM; in the assay on CAKI-1 renal, > 47.9 µM; in the assay on NCI/ADR-RES ovarian, 40.6 µM; in the assay with NCI-H226 lung, 21.7 µM; with HOP-92 NSCLC, 39.7 µM. Also, the TGI in the assay with SK-OV-3 ovarian stood at 47 µM; in the assay on HCT-15 colon, 49 µM; with MOLT-4 leukemia, 49.8 µM; in the assay with HCC-2998 colon it was 34.1 µM.

Consider `COc1ccc2oc3c(ccc[n+]3C)c(=O)c2c1`, for which the TGI in the assay on LOX IMVI melanoma, in the assay with CAKI-1 renal, in the assay with NCI/ADR-RES ovarian, in the assay on NCI-H226 lung, with HOP-92 NSCLC and in the assay on SK-OV-3 ovarian was > 100 µM in each case. The TGI in the assay with HCT-15 colon and in the assay with HCC-2998 colon was > 100 µM in each case.

For the compound `COc1ccc(-c2c(C#N)cnc(N)c2-c2nc3cc(C)c(C)cc3[nH]2)cc1`, the GI50 is 5.74 µM in the assay on LOX IMVI melanoma; 52 µM with UACC-257 melanoma; 14.6 µM in the assay with CAKI-1 renal; 6.84 µM in the assay with NCI/ADR-RES ovarian; 16.4 µM with NCI-H226 lung; 2.65 µM with HOP-92 NSCLC. Also, the GI50 is 4.84 µM with SK-OV-3 ovarian, 5.81 µM in the assay on HCT-15 colon, > 100 µM in the assay with MOLT-4 leukemia and 11 µM with HCC-2998 colon. In addition, the TGI was > 100 µM in the assay with LOX IMVI melanoma; > 100 µM in the assay with UACC-257 melanoma; > 100 µM with CAKI-1 renal; > 100 µM in the assay with NCI/ADR-RES ovarian; > 100 µM in the assay with NCI-H226 lung; 16.3 µM in the assay with HOP-92 NSCLC. Besides, the TGI was 18.4 µM in the assay on SK-OV-3 ovarian, > 100 µM in the assay on HCT-15 colon, > 100 µM in the assay with MOLT-4 leukemia and > 100 µM with HCC-2998 colon.

`CCc1ncc(C(C)(O)c2ccccc2)n1Cc1ccccc1` (configuration not stated): the TGI in the assay with LOX IMVI melanoma was 94 µM; with UACC-257 melanoma, > 100 µM; in the assay on CAKI-1 renal, > 100 µM; with NCI/ADR-RES ovarian, > 100 µM; with NCI-H226 lung it was > 100 µM; with HOP-92 NSCLC, > 100 µM. Further, the TGI in the assay on SK-OV-3 ovarian is > 100 µM; with HCT-15 colon it was > 100 µM; in the assay with MOLT-4 leukemia, 65.1 µM.

On to `C/C=C1/C(=O)O[C@]23C=C[C@@H]4C(C(=O)OC)=CO[C@H](O[C@@H]12)[C@@H]43`, for which the TGI with LOX IMVI melanoma came out at 0.725 µM; with UACC-257 melanoma, 2.31 µM; in the assay with CAKI-1 renal, 3.21 µM; with NCI/ADR-RES ovarian, 6.37 µM; in the assay with NCI-H226 lung, 5.36 µM; in the assay with HOP-92 NSCLC, 3.74 µM. Further, the TGI in the assay on SK-OV-3 ovarian was found to be 9.75 µM; with HCT-15 colon, 4.66 µM; in the assay on MOLT-4 leukemia, 3.83 µM; with HCC-2998 colon, 5.99 µM.

For `CC(=O)O[C@@H]1CN(S(=O)(=O)c2ccc(C)cc2)C[C@@H]1C1CCCCC1`, the TGI in the assay on LOX IMVI melanoma was found to be 64 µM; in the assay with UACC-257 melanoma, 35.7 µM; in the assay on CAKI-1 renal, 45.6 µM; with NCI/ADR-RES ovarian it was 53.3 µM; with NCI-H226 lung, 34.6 µM; with HOP-92 NSCLC, 33.8 µM. Further, the TGI with SK-OV-3 ovarian was > 100 µM; in the assay on HCT-15 colon it was > 100 µM; in the assay with MOLT-4 leukemia, 65.3 µM; in the assay with HCC-2998 colon it was > 100 µM.

Regarding `COc1ccc(/C=C/C(=O)/C=C(/C=C/c2ccc(OC)c(OC)c2OC)OB(F)F)c(OC)c1OC`, the GI50 with LOX IMVI melanoma was 0.721 µM; with UACC-257 melanoma it was 9.33 µM; in the assay with NCI/ADR-RES ovarian, 3.28 µM; in the assay with HOP-92 NSCLC, 7.46 µM; in the assay on SK-OV-3 ovarian it was 3.77 µM; with MOLT-4 leukemia it was 0.425 µM. Further, the GI50 in the assay with HCC-2998 colon is 1.94 µM. Further, the TGI in the assay with LOX IMVI melanoma is 2.4 µM; with UACC-257 melanoma, > 100 µM; in the assay with NCI/ADR-RES ovarian, > 100 µM; in the assay with HOP-92 NSCLC it was > 100 µM; in the assay with SK-OV-3 ovarian it was > 100 µM; with MOLT-4 leukemia, 4.74 µM. In addition, in the assay on HCC-2998 colon, the TGI amounted to 3.93 µM.

As for `CC(CNc1nc(Nc2ccc(Cl)c(Cl)c2)nc(C(Cl)(Cl)Cl)n1)N(C)C` (configuration not stated), the GI50 with UACC-257 melanoma was 1.75 µM; with CAKI-1 renal, 1.7 µM; in the assay on NCI-H226 lung, 1.8 µM; in the assay on HOP-92 NSCLC it was 1.35 µM; with SK-OV-3 ovarian, 1.6 µM; in the assay with HCT-15 colon, 1.68 µM. Besides, the GI50 in the assay with MOLT-4 leukemia is 1.72 µM; in the assay on HCC-2998 colon it was 1.58 µM. Moreover, the TGI in the assay with UACC-257 melanoma came to 3.32 µM; with CAKI-1 renal it was 3.59 µM; in the assay on NCI-H226 lung, 3.51 µM; in the assay with HOP-92 NSCLC, 4.16 µM; in the assay with SK-OV-3 ovarian it was 3.18 µM; with HCT-15 colon it was 3.15 µM. Further, the TGI in the assay with MOLT-4 leukemia came to 3.78 µM; in the assay on HCC-2998 colon, 3.04 µM.

As for `Nc1ccc2c(c1)S(=O)(=O)c1cc(N)ccc1-2`, the TGI in the assay with LOX IMVI melanoma, with UACC-257 melanoma, in the assay with CAKI-1 renal, in the assay on NCI/ADR-RES ovarian, with NCI-H226 lung and in the assay on HOP-92 NSCLC was > 100 µM in each case. The TGI with SK-OV-3 ovarian, in the assay with HCT-15 colon, in the assay on MOLT-4 leukemia and in the assay with HCC-2998 colon was > 100 µM in each case.

On to `O=c1ccc2nc3ccc(O)cc3oc-2c1`, for which the TGI in the assay on LOX IMVI melanoma is 7.86 µM; in the assay with UACC-257 melanoma it was 26.4 µM; with CAKI-1 renal, > 100 µM; with NCI/ADR-RES ovarian, > 100 µM; with NCI-H226 lung, > 100 µM; in the assay with HOP-92 NSCLC, > 100 µM. Moreover, the TGI with SK-OV-3 ovarian, with HCT-15 colon, in the assay with MOLT-4 leukemia and in the assay with HCC-2998 colon was > 100 µM throughout.

On to `CC(=O)Nc1nc(C)c(-c2cc3c(c(S(C)(=O)=O)c2)C(=O)N([C@@H](C)C2CC2)C3)s1`, for which the GI50 in the assay with LOX IMVI melanoma is 29.1 µM; in the assay on UACC-257 melanoma, 37.7 µM; in the assay on CAKI-1 renal, 17.6 µM; in the assay with NCI/ADR-RES ovarian, 53.6 µM; in the assay on NCI-H226 lung, 28.7 µM; with HOP-92 NSCLC, 15.9 µM. Moreover, the GI50 in the assay with SK-OV-3 ovarian was 22.2 µM; in the assay with HCT-15 colon it was 28.2 µM; in the assay with MOLT-4 leukemia, 29.3 µM; with HCC-2998 colon, 46.7 µM. The TGI is > 100 µM in the assay on LOX IMVI melanoma; > 100 µM in the assay on UACC-257 melanoma; 55.4 µM in the assay on CAKI-1 renal; > 100 µM in the assay on NCI/ADR-RES ovarian; > 100 µM in the assay with NCI-H226 lung; 64.1 µM in the assay on HOP-92 NSCLC. Also, the TGI in the assay with SK-OV-3 ovarian was 56.4 µM; in the assay on HCT-15 colon, > 100 µM; with MOLT-4 leukemia, > 100 µM; in the assay with HCC-2998 colon it was > 100 µM.

As to `Cc1ccc(C(=O)N/N=C(\N=Nc2ccccc2)c2ccc(N(CCC#N)CCC#N)cc2C)cc1`, the TGI with LOX IMVI melanoma, in the assay on UACC-257 melanoma, in the assay with CAKI-1 renal, in the assay on NCI/ADR-RES ovarian, in the assay with NCI-H226 lung and with HOP-92 NSCLC was > 100 µM in each case. Further, the TGI with SK-OV-3 ovarian, with HCT-15 colon, with MOLT-4 leukemia and in the assay on HCC-2998 colon was > 100 µM in each case.
